Data reported in US20100184809A1, “Heterocyclic FXR Binding Compounds” (PHENEX PHARMACEUTICALS AG, priority 2006, published 2010).

Columns and labels:
[1] = Aqueous solubility assay, Protocol A, nephelometry method; format: physicochemical; settings: PBS with 5% DMSO, aqueous with cosolvent or surfactant or cyclodextrin, kinetic from dmso stock, PBS pH 7.4, 5% DMSO, 23° C., 24 hours, read-out: Aqueous solubility pH 7.4
Experimental: Aqueous solubility of compounds was determined by nephelometry or by the shake-flask method as follows:
Protocol A, nephelometry method:
Solubility of compounds was measured in PBS (pH 7.4), 5% DMSO at 23° C. Nepheloskan Ascent (Thermo Electron Corporation) nephelometer was used for measurement of light scattering. Tested compounds were dissolved in DMSO to 10 mM. Prior to measurement the compounds were further diluted with PBS in the wells to final compound concentrations of 100, 70, 50, 35, 25, 17, 12 and <10 μg/ml.
The plates were incubated at room temperature for 24 hours to reach equilibrium and the scattered light was measured. Assay validation: Aqueous solubility of acetylsalicylic acid was determined to validate the assay.
The following compounds of Table 2 exemplify such solubility with “−−” meaning solubility<2 μM, “+” meaning 2 μM solubility 100 μM and “++” meaning solubility

PAMPA permeability assay = format: in vitro ADME; settings: % of compound found in the receiver compartment after 16 hours; PBS pH 7.4, 5% DMSO, 23° C.
Experimental: Artificial membrane permeability was determined as follows: Tested compounds were dissolved to 10 mM in 100% DMSO. Permeability of compounds was measured in PBS (pH 7.4), 5% DMSO at 23° C. Safire (Tecan) plate reader was used for measurement the UV/Vis absorption. Protocol: Dilute stocks of tested compounds and controls with PBS to 1.67 mM and mix well by pipeitting, add 280 μl of PBS, 5% DMSO to acceptor plate, add 5 μl of 2% L-α-Phosphatidylcholine suspension in dodecane to the membrane of donor plate, Immediately add 98 μl of PBS to donor plate and make the sandwich with acceptor plate. Add 42 μl of tested compounds and controls dilutions to […], cover the plate, place into camera and incubate for 16 hours. Make the equilibrium plate, add 225 μl of PBS, 3,7% DMSO and 25 μl of tested compounds and controls dilutions to UV plate. After 16 hours pull the donor plate out and transfer 250 μl from acceptor plate to UV plate. Scan UV plate on Safire (Tecan) plate reader from […]. Permeability is reported in % of compound found in the receiver compartment after the incubation period.

[2] = Rat microsomal stability assay; format: in vitro ADME; settings: liver microsomes, 37° C., NADPH, 45 minute, read-out: Rat liver microsome clearance
Experimental: Compound stability towards rat liver microsomes was determined as follows: The microsomes are incubated with the test compound at 37° C. in the presence of the co-factor, NADPH, which initiates the reaction. The reaction is terminated by the addition of methanol. Following centrifugation, the supernatant is analysed on the LC-MS/MS. The disappearance of test compound is monitored over a 45 minute time period. The In peak area ratio (compound peak area/internal standard peak area) is plotted against time and the gradient of the line determined. Finally, Intrinsic clearance CLint is computed by the following equations: elimination rate konstant (k)=−gradient; t1/2 (min)=0.693/k; V (μl/mg)=volume of incubation (μl)/protein in incubation (mg); CLint (μl/min/mg protein)=V*0.693/t1/2.

[3] = Pharmacokinetic parameters in C57/BLKS/J(mLepr^db/db) mice (plasma concentration after peroral gavage); format: in vivo; settings: mouse, oral, perorally by gavage 25 mg/kg, male C57/BLKS/J(mLepr^db/db) mice, read-out: mean plasma conc.
Experimental: Information on the rate and extent of absorption of the test compounds were generated using two distinct animal models, C57/BI/6J and C57/BLKS/J(mLepr^db/db) mice. Compounds were applied perorally by gavage at 10 mg/kg each to male 8 weeks old C57BL/6 mice and plasma concentrations of the test items were determined by LC-MS/MS (Table 11). Alternatively, compounds were applied perorally by gavage at 25 mg/kg each to 16 weeks old male C57/BLKS/J(mLepr^db/db) mice and plasma concentrations of the test items were determined 120 min after gavage by LC-MS/MS (Table 12).
A solution of 20 mg/ml of each test item was produced by diluting them in the vehicle, 30% HPBCD (hydroxypropyl-beta-cyclodextrin) in 20 mM phosphate buffer pH7.0 (v/w). These solutions were stirred overnight at room temperature and heated to 60° C. for 10 minutes, resulting in a full solubilization. The application was performed by administrating the solution perorally to the mice, with an application volume of 10 ml/kg. For each time point five mice were used. Blood samples were obtained by sacrificing animals for each time point followed by cardiac puncture. […] An aliquot of the particle-free supernatant was transferred to 200 μl sampler vials and subsequently subjected to LC MS/MS for quantification.

Caco-2 permeability = format: in vitro ADME; settings: human, apical to basolateral
Experimental: Caco-2 cells are widely used as an in vitro model for predicting human drug absorption. The Caco-2 cell line is derived from a human colorectal carcinoma, and when cultured, the cells spontaneously differentiate into monolayers of polarised enterocytes. The cells are seeded on Transwell™ plates and form a confluent monolayer over 20 days prior to the experiment. On day 20, the test compound is added to the apical side of the membrane and the transport of the compound across the monolayer is monitored over a 2 hour time period. To study drug efflux, it is also necessary to investigate transport of the compound from the basolateral compartment to the apical compartment. The permeability coefficient (Papp) is calculated from the following equation: […]
Where dQ/dt is the rate of permeation of the drug across the cells, CO is the donor compartment concentration at time zero and A is the area of the cell monolayer.

[4] = Plasma protein binding assay (equilibrium dialysis); format: in vitro ADME; settings: 37° C., extrapolated fraction unbound
Experimental: Equilibrium dialysis is used to determine the extent of binding of a compound to plasma proteins. A semi-permeable membrane separates a protein-containing compartment from a protein-free compartment. The system is allowed to equilibrate at 37° C. The test compound present in each compartment is quantified by LC-MS/MS. The extent of binding is reported as a fraction unbound (fu) value which is calculated as fu=1−(PC−PF)/PC. PC=Test compound concentration in protein-containing compartment. PF=Test compound concentration in protein-free compartment. In addition to using whole plasma, the plasma protein binding assay can be performed using two other ratios of plasma (10% or 50% plasma in buffer v/v). The following equations are used to convert from a fraction unbound at 10% or 50% to a fraction unbound at 100%: […]

solubility at 24 h [1]	PAMPA Permeability (PAMPA permeability assay)	microsomal CLint [2]	concentration at 120 min [3]	Papp A→B at 2 h (Caco-2 permeability)	fraction unbound [4]	Structure (SMILES)
< 2 µM	7%	310 µL/min/mg	164 ng/mL			CC(C)c1onc(-c2c(Cl)cccc2Cl)c1COc1ccc(/C=C/c2cccc(C(=O)O)c2)c(Cl)c1 [Compound B, reference compound]
> 100 µM	50%			30 ×10⁻⁶ cm/s	0.0003	Cc1nc(OCc2c(-c3c(Cl)cccc3Cl)noc2C(C)C)ccc1N(C)S(=O)(=O)c1ccc(C(=O)O)cc1 [Example 4, 4-(N-(6-((3-(2,6-dichlorophenyl)-5-isopropylisoxazol-4-yl)methoxy)-2-methylpyridin-3-yl)—N-methylsulfamoyl)benzoic acid]
> 100 µM		45 µL/min/mg		32 ×10⁻⁶ cm/s	0.005	CC(C)c1onc(-c2c(Cl)cccc2Cl)c1COc1ccc(N(C)C(=O)c2ccc(C(=O)O)cc2)c(C(F)(F)F)n1 [Example 7, N-{6-[3-(2,6-dichloro-phenyl)-5-isopropyl-isoxazol-4-ylmethoxy]-2-trifluoromethyl-pyridin-3-yl}-N-methyl-terephthalamic acid]
			287 ng/mL			CC(C)c1onc(-c2c(Cl)cccc2Cl)c1COc1ccc(N(C)Cc2ccc(C(=O)O)cc2)c(C(F)(F)F)n1 [Example 28, 4(((6-((3-(2,6-Dichlorophenyl)-5-isopropylisoxazol-4-yl)methoxy)-2-(trifluoromethyl)pyridin-3-yl)(methyl)amino)methyl)benzoic acid]
